From patent US20080194640A1, “Optically Active Tetrahydronaphthalene Derivative” (priority 2005, published 2008) come the findings set out here.

The IC50 is the midpoint of a concentration-inhibition curve.

The test system of test [1] is C5a stimulated neutrophil. In words: Production of reactive oxygen species in C5a-stimulated neutrophil. Format: cell-based. The following applies: human neutrophil, C5a 3 nmol/L, luminol luminescence, 37° C.; read-out: IC50 value, inhibition of production of reactive oxygen species in C5a stimulated neutrophil. Here is the method:
A neutrophil fraction was separately taken from human peripheral venous blood using Lympholyte-poly (Cedarlane), and suspended in Hank's Balanced Salt Solution (HBSS, GIBCO BRL) containing 1% fetal bovine serum (FBS) and 1 mmol/L luminol (Wako Pure Chemical Industries, Ltd.). Reactive oxygen species was measured using a luminometer (MicroLumat, Berthold) for 96-well plate. […] Then, 25 μL of C5a (final concentration 3 nmol/L) was added and luminescence produced by the reaction of the luminol and the reactive oxygen species was measured with the lapse of time for 15 min. The rate of inhibition (% inhibition) of the production of reactive oxygen species in C5a stimulated neutrophil by the test compound was calculated by the following formula, wherein the peak value of the production of reactive oxygen species derived by C5a without addition of the test compound is Max, the peak value of the production of reactive oxygen species without addition of the test compound and without C5a stimulation is Min, and the peak value of the production of reactive oxygen species derived by C5a with the addition of the test compound is Test. […]

Test [2] addresses T1, C5a receptor (Homo sapiens, UniProt P21730).
T1 construct: neutrophil fraction was separated from human peripheral intravenous blood; endogenous in cells; host or cells: human peripheral blood neutrophils (whole cells)
T1 sequence (P21730 1-350): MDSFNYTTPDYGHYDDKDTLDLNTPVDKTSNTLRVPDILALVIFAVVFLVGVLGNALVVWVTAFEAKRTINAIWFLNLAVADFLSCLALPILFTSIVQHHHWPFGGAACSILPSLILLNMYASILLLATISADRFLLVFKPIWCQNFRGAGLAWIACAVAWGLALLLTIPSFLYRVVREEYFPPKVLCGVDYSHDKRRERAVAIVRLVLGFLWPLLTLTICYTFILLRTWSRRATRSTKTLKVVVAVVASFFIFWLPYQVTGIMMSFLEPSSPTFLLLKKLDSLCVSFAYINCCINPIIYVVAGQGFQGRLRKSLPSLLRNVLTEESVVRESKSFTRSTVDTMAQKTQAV
Description: C5a receptor binding assay ([125I]-human C5a, human peripheral blood neutrophil). Particulars: [125I]-C5a 200 pM, 4° C. for 2 hr, read-out: IC50 value, inhibition of [125I]-human C5a binding. Here is the method:
The C5a receptor binding inhibitory action of C5a and the test compound was evaluated by a receptor binding assay comprising of human peripheral blood neutrophil, which expresses the C5a receptor, and [^125I]-human C5a (Amersham Pharmacia Biotech) in a MultiScreen (MILLIPORE). First, neutrophil fraction was separated from human peripheral intravenous blood using lympholyte-poly (Cedarlane), and suspended in a Binding buffer [50 mM HEPES, 1 mM CaCl2, 5 mM MgCl2, 0.5% bovine albumin (BSA, SIGMA), 0.02% NaN3 (pH 7.2)]. The binding assay was started by the addition of 1×10^5 cells/50 μL neutrophil suspension, 25 μL of a test compound solution (obtained by dissolving the test compound in N,N-dimethylformamide to a final concentration of 10 mmol/L and diluting with binding buffer), and 25 μL of [^125I]-C5a solution (final concentration 200 pM), to each well of the MultiScreen. […] After drying the MultiScreen, the radioactivity on the filter was measured using a gamma counter.
The rate of inhibition (% inhibition) of C5a binding by the test compound was calculated by the following formula using the count value obtained without addition of the test compound as Total, the count value obtained with addition of non-labeled C5a as Non, and the count value obtained with addition of the test compound as Test. […]

For the molecule `CCn1cc(CN(C(=O)C2CCCc3c(O)cccc32)c2ccc(C(C)C)nc2)cn1` (racemic) [racemate of the compound of Example 3, N-[(1-ethyl-1H-pyrazol-4-yl)methyl]-5-hydroxy-N-(6-isopropylpyridin-3-yl)-1,2,3,4-tetrahydronaphthalene-1-carboxamide, reference compound], the IC50 in test [1] turned out to be 0.0059 µM; in test [2] it was 0.023 µM.
